According to US9403830B2, “Inhibitors of leukotriene production” (Boehringer Ingelheim International GmbH, priority 2012, dated 2016):

Legend:
human LTA4 hydrolase = target: T1, human LTA4 hydrolase (Homo sapiens, UniProt P09960); assay: LTA4H Enzyme assay (peptidase, Arg-AMC cleavage); assay type: biochemical; conditions: LTA4H enzyme 1 nM, Arg-AMC substrate 50 μM, room temperature 1 h, fluorescence 380/460 nm
T1 sequence (P09960 1-611): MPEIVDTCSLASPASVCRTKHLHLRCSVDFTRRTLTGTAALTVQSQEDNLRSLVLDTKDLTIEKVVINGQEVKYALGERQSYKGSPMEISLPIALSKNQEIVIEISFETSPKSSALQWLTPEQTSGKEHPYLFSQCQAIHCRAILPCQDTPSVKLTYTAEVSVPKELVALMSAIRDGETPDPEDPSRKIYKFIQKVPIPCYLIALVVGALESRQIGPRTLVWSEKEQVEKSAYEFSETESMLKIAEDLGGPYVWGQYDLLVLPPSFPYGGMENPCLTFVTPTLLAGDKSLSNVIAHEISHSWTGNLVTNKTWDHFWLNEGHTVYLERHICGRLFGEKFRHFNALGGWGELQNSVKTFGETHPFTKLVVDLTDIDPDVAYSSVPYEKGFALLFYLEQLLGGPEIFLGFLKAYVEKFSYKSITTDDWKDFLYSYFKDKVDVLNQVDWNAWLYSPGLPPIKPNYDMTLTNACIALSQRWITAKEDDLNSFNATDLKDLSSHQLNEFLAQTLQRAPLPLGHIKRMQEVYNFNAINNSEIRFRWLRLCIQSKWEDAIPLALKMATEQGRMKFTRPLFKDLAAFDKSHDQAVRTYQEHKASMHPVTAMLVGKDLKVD
Procedure, shortened: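 Human LTA4H (1 nM final) incubated with compound and Arg-AMC (50 μM final) in 50 mM Tris-HCl pH 7.5, 100 mM KCl, 0.5% BSA, 1 h at room temperature. Product read as AMC fluorescence (ex 380/em 460 nm); IC50 reported.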

[1] = tested on: LTB4 synthesis in human whole blood; assay: human whole blood (HWB) assay, inhibition of LTB4 production; assay type: cell-based; conditions: heparinized human whole blood, calcimycin 20 μM stimulation, plasma LTB4
Procedure, shortened: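 Heparinized human whole blood preincubated with compound 15 min at 37 °C, then stimulated with 20 μM (final) calcimycin for 30 min at 37 °C. Plasma LTB4 measured by antibody-based HTRF; IC50 reported.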

Row | SMILES | IC50 (human LTA4 hydrolase) [nM] | IC50 [1] [nM]
1 | O=C1OCCCN1C1CCN(Cc2ccc3cc(Oc4ccc(-c5ccn[nH]5)cn4)ccc3n2)CC1 [Example 190, 3-(1-{6-[5-(2H-Pyrazol-3-yl)-pyridin-2-yloxy]-quinolin-2-ylmethyl}-piperidin-4-yl)-[1,3]oxazinan-2-one] | 0.53 | 170
2 | CC(=O)N[C@@H]1CCN(CCn2cc3cc(Oc4ccc(-c5ccn[nH]5)cc4)ccc3n2)C1 [Example 200, N-[(R)-1-(2-{5-[4-(2H-Pyrazol-3-yl)-phenoxy]-indazol-2-yl}-ethyl)-pyrrolidin-3-yl]-acetamide] | 0.47 | 190
3 | O=C1OCCN1C1CCN(CC2Cc3ccc(Oc4ccc(-c5ccn[nH]5)cc4)cc3O2)CC1 (stereo not drawn) [Example 203, 3-(1-{6-[4-(2H-Pyrazol-3-yl)-phenoxy]-2,3-dihydro-benzofuran-2-ylmethyl}-piperidin-4-yl)-oxazolidin-2-one] | 0.77 | 200
4 | OC1CCN(Cc2ccc3cc(Oc4ccc(-c5ccn[nH]5)cn4)ccc3n2)CC1 [Example 204, 1-{6-[5-(2H-Pyrazol-3-yl)-pyridin-2-yloxy]-quinolin-2-ylmethyl}-piperidin-4-ol] | 0.98 | 210
5 | CO[C@@H]1CCN(Cc2ccc3cc(Oc4ccc(-c5ccn[nH]5)cn4)ccc3n2)C1 [Example 205, 2-((R)-3-Methoxy-pyrrolidin-1-ylmethyl)-6-[5-(2H-pyrazol-3-yl)-pyridin-2-yloxy]-quinoline] | 1.2 | 210
6 | CO[C@H]1CCN(Cc2ccc3cc(Oc4ccc(-c5ccn[nH]5)cn4)ccc3n2)C1 [Example 208, 2-((S)-3-Methoxy-pyrrolidin-1-ylmethyl)-6-[5-(2H-pyrazol-3-yl)-pyridin-2-yloxy]-quinoline] | 1.2 | 220
7 | O=C1CCCCN1C1CCN(Cc2ccc3cc(Oc4ccc(-c5ccn[nH]5)cn4)ccc3n2)CC1 [Example 209, 1′-{6-[5-(2H-Pyrazol-3-yl)-pyridin-2-yloxy]-quinolin-2-ylmethyl}-[1,4′]bipiperidinyl-2-one] | 0.66 | 220
8 | O[C@H]1CCN(Cc2ccc3cc(Oc4ccc(-c5ccn[nH]5)cn4)ccc3n2)C1 [Example 210, (S)-1-{6-[5-(2H-Pyrazol-3-yl)-pyridin-2-yloxy]-quinolin-2-ylmethyl}-pyrrolidin-3-ol] | 0.82 | 230
9 | O=C1COCCN1C1CCN(Cc2ccc3cc(Oc4ccc(-c5ccn[nH]5)cn4)ccc3n2)CC1 [Example 211, 4-(1-{6-[5-(2H-Pyrazol-3-yl)-pyridin-2-yloxy]-quinolin-2-ylmethyl}-piperidin-4-yl)-morpholin-3-one] | 0.8 | 230
10 | COC1CCN(Cc2ccc3cc(Oc4ccc(-c5ccn[nH]5)cn4)ccc3n2)CC1 [Example 212, 2-(4-Methoxy-piperidin-1-ylmethyl)-6-[5-(2H-pyrazol-3-yl)-pyridin-2-yloxy]-quinoline] | 1.2 | 250
11 | O=c1cccc2n1C[C@H]1C[C@@H]2CN(Cc2ccc3cc(Oc4ccc(-c5ccn[nH]5)cn4)ccc3n2)C1 [Example 213, (1R,5S)-3-{6-[5-(2H-Pyrazol-3-yl)-pyridin-2-yloxy]-quinolin-2-ylmethyl}-1,2,3,4,5,6-hexahydro-1,5-methano-pyrido[1,2-a][1,5]diazocin-8-one] | 0.77 | 390
12 | c1cc(-c2ccc(Oc3ccc4nc(CNCCC5CCOCC5)ccc4c3)nc2)[nH]n1 [Example 214, {6-[5-(2H-Pyrazol-3-yl)-pyridin-2-yloxy]-quinolin-2-ylmethyl}-[2-(tetrahydro-pyran-4-yl)-ethyl]-amine] | 2.5 | 400
13 | c1ccc(OC2CCN(Cc3ccc4cc(Oc5ccc(-c6ccn[nH]6)cn5)ccc4n3)CC2)nc1 [Example 215, 6-[5-(2H-Pyrazol-3-yl)-pyridin-2-yloxy]-2-[4-(pyridin-2-yloxy)-piperidin-1-ylmethyl]-quinoline] | 5 | 680
14 | c1cc(-c2cnc(Oc3ccc4nc(CN5CCCC5)ccc4c3)nc2)[nH]n1 [Example 220, 6-[5-(2H-Pyrazol-3-yl)-pyrimidin-2-yloxy]-2-pyrrolidin-1-ylmethyl-quinoline] | 1.7 | 160

Continued, values first:

Row | IC50 (human LTA4 hydrolase) [nM] | IC50 [1] [nM] | SMILES
15 | 0.18 | 170 | CCNCc1nc2cc(Oc3ccc(-c4ccn[nH]4)cc3)ccc2[nH]1 [Example 191, Ethyl-{5-[4-(2H-pyrazol-3-yl)-phenoxy]-1H-benzoimidazol-2-ylmethyl}-amine]
16 | 0.17 | 170 | CCN(CCO)Cc1nc2cc(Oc3ccc(-c4ccn[nH]4)cc3)ccc2[nH]1 [Example 192, 2-(Ethyl-{5-[4-(2H-pyrazol-3-yl)-phenoxy]-1H-benzoimidazol-2-ylmethyl}-amino)-ethanol]
17 | 0.13 | 170 | CCOCC1CCN(Cc2nc3cc(Oc4ccc(-c5ccn[nH]5)cc4)ccc3[nH]2)CC1 [Example 193, 2-(4-Ethoxymethyl-piperidin-1-ylmethyl)-5-[4-(2H-pyrazol-3-yl)-phenoxy]-1H-benzoimidazole]
18 | 0.18 | 180 | c1cc(-c2ccc(Oc3ccc4[nH]c(CN[C@H]5CCOC5)nc4c3)cc2)[nH]n1 [Example 194, {5-[4-(2H-Pyrazol-3-yl)-phenoxy]-1H-benzoimidazol-2-ylmethyl}-(S)-tetrahydro-furan-3-yl-amine]
19 | 0.14 | 180 | OCC1CCCCN1Cc1nc2cc(Oc3ccc(-c4ccn[nH]4)cc3)ccc2[nH]1 (stereo not drawn) [Example 195, (1-{5-[4-(2H-Pyrazol-3-yl)-phenoxy]-1H-benzoimidazol-2-ylmethyl}-piperidin-2-yl)-methanol]
20 | 0.17 | 180 | FC(F)(F)C1CCN(Cc2nc3cc(Oc4ccc(-c5ccn[nH]5)cc4)ccc3[nH]2)C1 (stereo not drawn) [Example 196, 5-[4-(2H-Pyrazol-3-yl)-phenoxy]-2-(3-trifluoromethyl-pyrrolidin-1-ylmethyl}-1H-benzoimidazole]
21 | 0.46 | 180 | CN(C)C(=O)C1CCN(CC2Cc3ccc(Oc4ccc(-c5ccn[nH]5)cc4)cc3O2)CC1 (stereo not drawn) [Example 197, 1-{6-[4-(2H-Pyrazol-3-yl)-phenoxy]-2,3-dihydro-benzofuran-2-ylmethyl}-piperidine-4-carboxylic acid dimethylamide]
22 | 0.35 | 180 | O=C1CCCN1C1CCN(CC2Cc3ccc(Oc4ccc(-c5ccn[nH]5)cc4)cc3O2)CC1 (stereo not drawn) [Example 198, 1-(1-{6-[4-(2H-Pyrazol-3-yl)-phenoxy]-2,3-dihydro-benzofuran-2-ylmethyl}-piperidin-4-yl)-pyrrolidin-2-one]
23 | 0.13 | 190 | CCCN(CCO)Cc1nc2cc(Oc3ccc(-c4ccn[nH]4)cc3)ccc2[nH]1 [Example 199, 2-(Propyl-{5-[4-(2H-pyrazol-3-yl)-phenoxy]-1H-benzoimidazol-2-ylmethyl}-amino)-ethanol]
24 | 0.32 | 200 | c1cc(-c2ccc(Oc3ccc4[nH]c(CC5CCOCC5)nc4c3)cc2)[nH]n1 [Example 202, 5-[4-(2H-Pyrazol-3-yl)-phenoxy]-2-(tetrahydro-pyran-4-ylmethyl)-1H-benzoimidazole]
25 | 0.42 | 210 | c1cc(-c2ccc(Oc3ccc4nn(CCNCC5CCOCC5)cc4c3)cc2)[nH]n1 [Example 206, (2-{5-[4-(2H-Pyrazol-3-yl)-phenoxy]-indazol-2-yl}-ethyl)-(tetrahydro-pyran-4-ylmethyl)-amine]
26 | 0.17 | 220 | c1cc(-c2ccc(Oc3ccc4[nH]c(C[C@@H]5CCCN5)nc4c3)cc2)[nH]n1 [Example 207, 5-[4-(2H-Pyrazol-3-yl)-phenoxy]-2-(S)-1-pyrrolidin-2-ylmethyl-1H-benzoimidazole]
27 | 0.2 | 110 | OC1CN(Cc2ccc3c(ccn3Cc3ccc(-c4ccn[nH]4)cc3)c2)C1 [Example 216, 1-{1-[4-(2H-Pyrazol-3-yl)-benzyl]-1H-indol-5-ylmethyl}-azetidin-3-ol]
28 | 0.12 | 81 | c1cc(-c2ccc(Oc3ccc4nn(CCN5CCCC5)cc4c3)cc2)[nH]n1 [Example 217, 5-[4-(2H-Pyrazol-3-yl)-phenoxy]-2-(2-pyrrolidin-1-yl-ethyl)-2H-indazole]
29 | 0.097 | 110 | c1cc(-c2ccc(Oc3ccc4c(c3)OC(CN3CCCC3)C4)cc2)[nH]n1 (stereo not drawn) [Example 218, 5-[4-(2-Pyrrolidin-1-ylmethyl-2,3-dihydro-benzofuran-6-yloxy)-phenyl]-1H-pyrazole]
30 | 0.22 | 110 | CC(=O)NC1CCN(CC2Cc3ccc(Oc4ccc(-c5ccn[nH]5)cc4)cc3O2)CC1 (stereo not drawn) [Example 219, N-(1-[6-[4-(2H-Pyrazol-3-yl)-phenoxy]-2,3-dihydro-benzofuran-2-ylmethyl]-piperidin-4-yl)-acetamide]
